According to patent US10414811B2, “Protease-resistant lipidated GLP-1 analogs” (MEDIMMUNE LIMITED, priority 2015, dated 2019):
pEC50: −log10 of the molar value. Like-named read-outs stand apart in the source and are kept apart here. Numbered stars: 1 amine (or outer) side, 2 acyl side, 3 side chain; on linkers, the order of the positions; unused ones are H or OH. Square brackets hold non-standard residues; d marks the D form. Side chains are listed from the residue outwards. Peptide text beside a SMILES is read from it. * marks the point of attachment. γGlu = O=C(O)[C@H](CCC(=O)[*:2])N[*:1]; αMeF = C[C@](N)(Cc1ccccc1)C(=O)O; αMeK = C[C@](N)(CCCCN)C(=O)O; Lauroyl = CCCCCCCCCCCC(=O)*; αMeS = C[C@](N)(CO)C(=O)O; AEEA = NCCOCCOCC(=O)O; Aib = CC(C)(N)C(=O)O

Key:
Type in all cases: cell-based
[1] = target: T1, human glucagon receptor (GCGR) (Homo sapiens, UniProt P47871); assay: cAMP assay, human GCGR cells
T1 construct: expressed in transfected cells
Summary of the method: (§1)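 Peptide-stimulated cAMP measured by two-step HTRF after a 30 min room-temperature incubation with receptor-expressing cells (hGLP-1R, hGIPR at 1×10^5 cells/ml; hGCGR at 2×10^5 cells/ml). Duplicate dilutions; EC50 from 4-parameter logistic fit of % Delta F.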

[2] = target: T2, human glucose-dependent insulinotropic peptide receptor (GIPR) (Homo sapiens, UniProt P48546); assay: cAMP assay, human GIPR cells
T2 construct: expressed in transfected cells
T2 sequence (P48546 22-466): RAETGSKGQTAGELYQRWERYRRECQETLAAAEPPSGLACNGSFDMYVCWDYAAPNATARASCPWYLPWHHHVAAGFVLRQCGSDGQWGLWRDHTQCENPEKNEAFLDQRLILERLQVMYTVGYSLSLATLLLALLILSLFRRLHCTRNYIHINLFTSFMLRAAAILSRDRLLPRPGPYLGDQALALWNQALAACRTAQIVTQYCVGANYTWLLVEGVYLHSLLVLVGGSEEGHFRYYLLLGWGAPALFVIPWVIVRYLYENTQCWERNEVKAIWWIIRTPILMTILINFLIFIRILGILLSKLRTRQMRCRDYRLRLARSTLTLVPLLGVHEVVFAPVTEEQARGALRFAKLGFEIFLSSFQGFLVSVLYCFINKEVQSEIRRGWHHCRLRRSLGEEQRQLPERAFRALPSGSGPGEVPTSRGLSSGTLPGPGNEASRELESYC
Summary of the method: as §1

[3] = target: T3, GLP-1R (INS1e assay) (Rattus norvegicus, UniProt P32301); assay: INS1e assay, cAMP activity at GLP-1R; conditions: for EC50: mean of n1 and n2, read-out: INS1e assay EC50 Mean pM GLP-1R
T3 construct: endogenous in cells; host or cells: INS-1E cells
T3 sequence (P32301 22-463): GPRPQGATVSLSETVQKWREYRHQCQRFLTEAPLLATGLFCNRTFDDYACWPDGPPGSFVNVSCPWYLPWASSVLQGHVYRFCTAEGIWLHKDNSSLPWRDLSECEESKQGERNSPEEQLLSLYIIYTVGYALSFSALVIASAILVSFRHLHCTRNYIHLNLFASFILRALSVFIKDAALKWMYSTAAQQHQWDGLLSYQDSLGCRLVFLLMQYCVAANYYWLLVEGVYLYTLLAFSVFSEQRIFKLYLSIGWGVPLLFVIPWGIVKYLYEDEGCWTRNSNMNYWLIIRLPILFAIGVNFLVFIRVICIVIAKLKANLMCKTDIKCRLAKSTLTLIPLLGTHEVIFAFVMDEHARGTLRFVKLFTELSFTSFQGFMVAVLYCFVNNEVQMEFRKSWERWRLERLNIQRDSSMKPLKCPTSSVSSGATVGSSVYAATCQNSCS
Summary of the method: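 cAMP was quantified by two-step HTRF, using anti-cAMP cryptate donor and cAMP-d2 acceptor, each diluted 1/20 in conjugate and lysis buffer. EC50 values of the synthetic peptides were derived from the cAMP readout.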

[4] = target: T4, human GLP-1 receptor (GLP-1R) (Homo sapiens, UniProt P43220); assay: cAMP assay, human GLP-1R cells; conditions: for EC50: mean of n1 and n2
T4 construct: expressed in transfected cells
Summary of the method: as §1

[5] = cAMP assay, first determination (n1), read-out: Primary assay EC50 Gluc-R (n1)
[6] = cAMP assay, second determination (n2), read-out: Primary assay EC50 Gluc-R (n2)
[7] = cAMP assay, first determination (n1), read-out: Primary assay EC50 GIP-R (n1)
[8] = cAMP assay, second determination (n2), read-out: Primary assay EC50 GIP-R (n2)
[9] = mono-lipidated peptides, replicate n1, read-out: INS1e assay EC50 GLP-1R n1
[10] = mono-lipidated peptides, replicate n2, read-out: INS1e assay EC50 GLP-1R n2
[11] = cAMP assay, first determination (n1), read-out: Primary assay EC50 GLP-1R n1
[12] = cAMP assay, second determination (n2), read-out: Primary assay EC50 GLP-1R n2

T4 sequence (P43220 24-463): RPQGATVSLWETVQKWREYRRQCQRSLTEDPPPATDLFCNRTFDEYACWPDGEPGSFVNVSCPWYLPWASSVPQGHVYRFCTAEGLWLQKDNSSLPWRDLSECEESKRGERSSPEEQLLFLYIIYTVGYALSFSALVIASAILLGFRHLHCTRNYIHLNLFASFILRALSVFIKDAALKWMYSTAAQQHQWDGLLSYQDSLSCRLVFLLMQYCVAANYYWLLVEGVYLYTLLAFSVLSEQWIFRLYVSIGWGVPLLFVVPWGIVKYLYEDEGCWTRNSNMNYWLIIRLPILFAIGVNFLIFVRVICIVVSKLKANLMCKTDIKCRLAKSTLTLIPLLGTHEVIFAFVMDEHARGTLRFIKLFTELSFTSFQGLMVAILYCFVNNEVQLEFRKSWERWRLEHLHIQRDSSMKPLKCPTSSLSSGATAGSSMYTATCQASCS
T1 sequence (P47871 26-477): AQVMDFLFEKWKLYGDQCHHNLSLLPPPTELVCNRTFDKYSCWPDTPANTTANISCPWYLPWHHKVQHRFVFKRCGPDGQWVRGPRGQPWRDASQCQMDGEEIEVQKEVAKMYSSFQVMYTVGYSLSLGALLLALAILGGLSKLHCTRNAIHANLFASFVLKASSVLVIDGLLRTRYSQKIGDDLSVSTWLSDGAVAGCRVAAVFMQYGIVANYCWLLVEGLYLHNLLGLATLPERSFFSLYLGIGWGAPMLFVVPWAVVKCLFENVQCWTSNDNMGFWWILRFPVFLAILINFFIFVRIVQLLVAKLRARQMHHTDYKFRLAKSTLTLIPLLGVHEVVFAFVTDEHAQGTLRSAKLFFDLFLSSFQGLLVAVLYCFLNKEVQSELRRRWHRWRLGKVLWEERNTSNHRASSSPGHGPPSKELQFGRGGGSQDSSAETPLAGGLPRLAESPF

Row | pEC50 ([1]; tris-lipidated peptides, first replicate, read-out: Primary assay EC50 Gluc-R (n1)) | pEC50 ([2]; tris-lipidated peptides, first replicate, read-out: Primary assay EC50 GIP-R (n1)) | EC50 ([3]; tris-lipidated peptides) [pM] | pEC50 ([3]; tris-lipidated peptides, replicate n1, read-out: INS1e assay EC50 GLP-1R n1) | pEC50 ([3]; tris-lipidated peptides, replicate n2, read-out: INS1e assay EC50 GLP-1R n2) | EC50 ([4]; tris-lipidated peptides, read-out: Primary assay EC50 Mean pM GLP-1R) [pM] | pEC50 ([4]; tris-lipidated peptides, replicate n1, read-out: Primary assay EC50 GLP-1R n1) | pEC50 ([4]; tris-lipidated peptides, replicate n2, read-out: Primary assay EC50 GLP-1R n2) | pEC50 [1, 5] | pEC50 [1, 6] | pEC50 [2, 7] | pEC50 [2, 8] | EC50 ([3]; mono-lipidated peptides) [pM] | pEC50 [3, 9] | pEC50 [3, 10] | pEC50 [4, 11] | pEC50 [4, 12] | EC50 ([4]; read-out: Mean pM GLP-1R) [pM] | SMILES
1 | 7.69 | 7.69 | 3200 | 8.41 | 8.59 | 22.4 | 10.76 | 10.56 | – | – | – | – | – | – | – | – | – | – | CCCCCCCCCCCC(=O)N[C@@H](CCC(=O)NCCOCCOCC(=O)NCCOCCOCC(=O)NCCCC[C@H](NC(=O)[C@H](C)NC(=O)[C@@H](NC(=O)[C@H](Cc1ccccc1)NC(=O)[C@H](CCCCNC(=O)COCCOCCNC(=O)COCCOCCNC(=O)CC[C@H](NC(=O)CCCCCCCCCCC)C(=O)O)NC(=O)[C@](C)(CCCCN)NC(=O)[C@H](C)NC(=O)[C@H](C)NC(=O)[C@H](CCC(=O)O)NC(=O)CNC(=O)[C@H](CCC(=O)O)NC(=O)[C@H](CC(C)C)NC(=O)[C@H](CCCCNC(=O)COCCOCCNC(=O)COCCOCCNC(=O)CC[C@H](NC(=O)CCCCCCCCCCC)C(=O)O)NC(=O)[C@H](CO)NC(=O)[C@](C)(CO)NC(=O)[C@@H](NC(=O)[C@H](CC(=O)O)NC(=O)[C@H](CO)NC(=O)[C@@H](NC(=O)[C@](C)(Cc1ccccc1)NC(=O)[C@H](CO)NC(=O)CNC(=O)[C@H](CCC(=O)O)NC(=O)C(C)(C)NC(=O)[C@@H](N)Cc1c[nH]cn1)[C@@H](C)O)C(C)C)[C@@H](C)CC)C(=O)N[C@H](C(=O)N[C@H](C(=O)N[C@@H](CCC(=O)O)C(=O)NCC(=O)NCC(N)=O)C(C)C)C(C)C)C(=O)O [compound 466] (H-H[Aib]EGS[αMeF]TSDV[αMeS]SK([AEEA-AEEA-γGlu-Lauroyl])LEGEAA[αMeK]K([AEEA-AEEA-γGlu-Lauroyl])FIAK([AEEA-AEEA-γGlu-Lauroyl])VVEGG-NH2; N-terminus assumed)
2 | – | – | – | – | – | – | – | – | ≤ 7.57 | ≤ 7.57 | ≤ 7.57 | ≤ 7.57 | 79 | 10.01 | 10.23 | 11.27 | 11.35 | 5 | CCCCCCCCCCCC(=O)NCCOCCOCC(=O)NCCOCCOCC(=O)NCCCC[C@H](NC(=O)[C@H](C)NC(=O)[C@H](C)NC(=O)[C@H](CCC(=O)O)NC(=O)CNC(=O)[C@H](CCC(=O)O)NC(=O)[C@H](CC(C)C)NC(=O)[C@](C)(Cc1ccccc1)NC(=O)[C@H](CO)NC(=O)[C@](C)(CO)NC(=O)[C@@H](NC(=O)[C@H](CC(=O)O)NC(=O)[C@H](CO)NC(=O)[C@@H](NC(=O)[C@](C)(Cc1ccccc1)NC(=O)[C@H](CO)NC(=O)CNC(=O)[C@H](CCC(=O)O)NC(=O)C(C)(C)NC(=O)[C@@H](N)Cc1c[nH]cn1)[C@@H](C)O)C(C)C)C(=O)N[C@@H](CCC(=O)O)C(=O)N[C@@](C)(Cc1ccccc1)C(=O)N[C@H](C(=O)N[C@@H](C)C(=O)N[C@@](C)(Cc1ccccc1)C(=O)N[C@H](C(=O)N[C@H](C(=O)N[C@@](C)(CCCCN)C(=O)NCC(=O)NCC(N)=O)C(C)C)C(C)C)[C@@H](C)CC [compound 135]
3 | – | – | – | – | – | – | – | – | ≤ 7.55 | ≤ 7.55 | ≤ 7.55 | ≤ 7.55 | 53 | 10.36 | 10.21 | 11.80 | 11.80 | 1.6 | CCCCCCCCCCCCCCCC(=O)N[C@@H](CCC(=O)NCCCC[C@H](NC(=O)[C@H](CO)NC(=O)[C@](C)(CO)NC(=O)[C@@H](NC(=O)[C@H](CC(=O)O)NC(=O)[C@H](CO)NC(=O)[C@@H](NC(=O)[C@](C)(Cc1ccccc1)NC(=O)[C@H](CO)NC(=O)CNC(=O)[C@H](CCC(=O)O)NC(=O)C(C)(C)NC(=O)[C@@H](N)Cc1c[nH]cn1)[C@@H](C)O)C(C)C)C(=O)N[C@@H](CC(C)C)C(=O)N[C@@H](CCC(=O)O)C(=O)NCC(=O)N[C@@H](CCC(=O)O)C(=O)N[C@@H](C)C(=O)N[C@@H](C)C(=O)N[C@@](C)(CCCCN)C(=O)N[C@@H](CCC(=O)O)C(=O)N[C@@](C)(Cc1ccccc1)C(=O)N[C@H](C(=O)N[C@@H](C)C(=O)N[C@@](C)(Cc1ccccc1)C(=O)N[C@H](C(=O)N[C@H](C(=O)N[C@@](C)(CCCCN)C(=O)NCC(=O)NCC(N)=O)C(C)C)C(C)C)[C@@H](C)CC)C(=O)O [compound 87]
4 | – | – | – | – | – | – | – | – | ≤ 7.55 | ≤ 7.55 | ≤ 7.55 | ≤ 7.55 | 326 | 9.72 | 9.34 | 11.29 | 11.59 | 3.8 | CCCCCCCCCCCC(=O)NCCCCCC(=O)NCCCCCC(=O)NCCCC[C@H](NC(=O)[C@@H](NC(=O)[C@@H](NC(=O)[C@](C)(Cc1ccccc1)NC(=O)[C@H](C)NC(=O)[C@@H](NC(=O)[C@](C)(Cc1ccccc1)NC(=O)[C@H](CCC(=O)O)NC(=O)[C@](C)(CCCCN)NC(=O)[C@H](C)NC(=O)[C@H](C)NC(=O)[C@H](CCC(=O)O)NC(=O)CNC(=O)[C@H](CCC(=O)O)NC(=O)[C@H](CC(C)C)NC(=O)[C@](C)(Cc1ccccc1)NC(=O)[C@H](CO)NC(=O)[C@](C)(CO)NC(=O)[C@@H](NC(=O)[C@H](CC(=O)O)NC(=O)[C@H](CO)NC(=O)[C@@H](NC(=O)[C@](C)(Cc1ccccc1)NC(=O)[C@H](CO)NC(=O)CNC(=O)[C@H](CCC(=O)O)NC(=O)C(C)(C)NC(=O)[C@@H](N)Cc1c[nH]cn1)[C@@H](C)O)C(C)C)[C@@H](C)CC)C(C)C)C(C)C)C(=O)NCC(=O)NCC(N)=O [compound 168]
5 | – | – | – | – | – | – | – | – | ≤ 7.59 | ≤ 7.59 | ≤ 7.59 | ≤ 7.59 | 426 | 9.45 | 9.30 | 10.33 | 10.92 | 29.5 | CCCCCCCCCCCCCCCCCC(=O)N[C@@H](CCC(=O)N[C@@H](CCC(=O)N[C@@H](CCC(=O)NCCCC[C@H](NC(=O)[C@@H](NC(=O)[C@@H](NC(=O)[C@](C)(Cc1ccccc1)NC(=O)[C@H](C)NC(=O)[C@@H](NC(=O)[C@](C)(Cc1ccccc1)NC(=O)[C@H](CCC(=O)O)NC(=O)[C@](C)(CCCCN)NC(=O)[C@H](C)NC(=O)[C@H](C)NC(=O)[C@H](CCC(=O)O)NC(=O)CNC(=O)[C@H](CCC(=O)O)NC(=O)[C@H](CC(C)C)NC(=O)[C@](C)(Cc1ccccc1)NC(=O)[C@H](CO)NC(=O)[C@](C)(CO)NC(=O)[C@@H](NC(=O)[C@H](CC(=O)O)NC(=O)[C@H](CO)NC(=O)[C@@H](NC(=O)[C@](C)(Cc1ccccc1)NC(=O)[C@H](CO)NC(=O)CNC(=O)[C@H](CCC(=O)O)NC(=O)C(C)(C)NC(=O)[C@@H](N)Cc1c[nH]cn1)[C@@H](C)O)C(C)C)[C@@H](C)CC)C(C)C)C(C)C)C(=O)NCC(=O)NCC(N)=O)C(=O)O)C(=O)O)C(=O)O [compound 184]
